Laboratory results: US20040266811A1, “Methods for inducing regeneration, remyelination, and hypermyelination of nervous tissue” (priority 2002, published 2004)
“Also recorded” adds a separate entry of the source.

Tests used:
[1] = test system: TrkA-overexpressing PC12 cells; experiment: Schwann cell conditioned media on TrkA-overexpressing PC12 cells; format: cell-based; conditions: Schwann cells 1 μM GM-284 48 h; CM on PC12 72 h
Procedure: Wild-type and TrkA-overexpressing PC12 cells (Hempstead et al., Overexpression of the trk tyrosine kinase rapidly accelerates nerve growth factor-induced differentiation. Neuron, 9:883-96, 1992) were maintained in DMEM supplemented with 10% calf serum and 5% horse serum, the latter of which was also supplemented with 200 μg/ml G418 to maintain TrkA selection. Cultures were treated with 100 ng/ml NGF or the immunophilin ligands, or treated with Schwann-cell-conditioned medium supplemented with 5% horse serum, as indicated below. To generate GFP-expressing PC12 cells, a bicistronic pCX-bsr retroviral vector (Escalante et al., Phosphorylation of c-Crk II on the negative regulatory Tyr222 mediates nerve growth factor-induced cell spreading and morphogenesis. J. Biol. Chem., 275:24787-797, 2000), which drives expression of green fluorescent protein (GFP), was used to infect dividing PC12 cells.
To more directly examine the involvement of Schwann cells in mediating the neuritogenic capacities of GM-284, PC12 cells were infected with GFP-expressing retrovirus, and co-cultured on monolayers of Schwann cells, in the presence of either NGF, GM-284, or vehicle, for 48 h (FIG. 4B, panels a-c). […]

DRG explants [2] = experiment: DRG explant neurite outgrowth with anti-NGF neutralizing antibodies or MEK1 inhibitor; format: cell-based, C57B1/6 mice; conditions: DRGs cultured in 1 μM GM-284 plus inhibitor
Procedure: (§1) (A) DRGs were prepared and cultured as above, except that either the MEK1 inhibitor, PD 098059, or NGF-neutralizing antibodies were included in cultures treated with either NGF or GM-284. Maximal response was determined to be the extent of neurite outgrowth when DRGs were cultured in NGF alone (spotted bars) or in 1 μM GM-284 (striped bars). As indicated, DRGs were treated with either NGF or GM-284, in the presence of either 0.25 mg/ml anti-NGF neutralizing antibodies or PD 098059. […] DRGs were treated with 100 ng/ml NGF or 1 μM GM-284, for 30 min or 4 h, as indicated, and the detergent lysates were prepared and immunoblotted with anti-phospho-Erk monoclonal antibody. The p42 and p44 bands are indicated by arrowheads.
Explanted DRG ganglia were dissected from P1 to P3 C57B1/6 mice, as previously described (Weinstein et al., Targeted expression of an oncogenic adaptor protein v-Crk potentiates axonal growth in dorsal root ganglia and motor neurons in vivo. Brain Res. Dev. Brain Res., 116:29-39, 1999). Briefly, DRGs were dissected and placed in ice-cold PBS containing 2% glucose, then transferred onto polyornithine/laminin-coated tissue culture plates (Biocoat, Becton Dickinson Laboratories) in DMEM-plating medium overnight. The plating medium consisted of Dulbecco's minimal essential plating medium (DMEM) supplemented with 10% fetal calf serum (FCS; Hyclone), 0.6% glucose, 2 mM glutamine, 100 U/ml penicillin, 100 μg/ml streptomycin, and 20 mM HEPES. […] For experiments employing anti-NGF neutralizing antibodies, cultures were incubated with […] anti-NGF antiserum, and replaced every two days. Cultures were kept at 37° C., in 5% CO2, for up to 1 week, at which time the extent of well-defined neurite outgrowth was assessed.
Signaling by the neurotrophins, while mediated by different cell-surface receptors, converges on the extensively studied and well-characterized MAP kinase pathway. […] Therefore, the inventors explored the possibility that GM-284 might signal through NGF directly, or through the MAP kinase cascade. […]

[3] = test system: Erk phosphorylation in DRG neurons; experiment: Erk phosphorylation immunoblot in DRGs; format: cell-based, mice; conditions: 1 μM GM-284, 30 min or 4 h
Procedure: as §1
293T cells were lysed in ice-cold HNTG buffer (20 mM HEPES, pH 7.5; 150 mM NaCl; 10% glycerol; and 1% Triton X-100) containing 0.1 mM sodium molybdate, 1 mM sodium vanadate, 1 mM phenylmethylsulfonyl fluoride (PMSF), and 10 μg/ml aprotinin. After 10 min at 4° C., cleared lysates were subjected to SDS-PAGE and Western blot analysis using standard protocols. Blots were incubated with the indicated primary antibodies and the appropriate […] secondary antibodies, followed by detection using enhanced chemiluminescence (ECL) reagent (Renaissance, NEN).

DRG explants [4] = experiment: Neurite outgrowth from DRG explants; format: cell-based, C57B1/6 mice; conditions: 1 μM GM-284, 96 h
Procedure: (A) DRGs were explanted and cultured alone, (panel i), in the presence of 100 ng/ml NGF (panel ii) or in the presence of 1 μM GM-284 (panel iii), for 96 h. At the end of the culture period, the tissue was fixed and stained for expression of neuron-specific β-III tubulin. […] (B) Both Schwann cells and neurons are present in DRG explants. To determine if the neuritogenic effects of GM-284 are direct, acting on neurons, or indirect, acting through Schwann cells, sensory neurons from E18 mice were isolated and treated with either NGF (left panel) or GM-284 (right panel) for 6 days.
Explanted DRG ganglia were dissected from P1 to P3 C57B1/6 mice, as previously described (Weinstein et al., Targeted expression of an oncogenic adaptor protein v-Crk potentiates axonal growth in dorsal root ganglia and motor neurons in vivo. Brain Res. Dev. Brain Res., 116:29-39, 1999). Briefly, DRGs were dissected and placed in ice-cold PBS containing 2% glucose, then transferred onto polyornithine/laminin-coated tissue culture plates (Biocoat, Becton Dickinson Laboratories) in DMEM-plating medium overnight. […] Cultures were kept at 37° C., in 5% CO2, for up to 1 week, at which time the extent of well-defined neurite outgrowth was assessed.

CCC(C)(C)C(=O)C(=O)N1CCC[C@H]1c1nnc([C@@H]2CCCN2C(=O)C(=O)C(C)(C)CC)o1 [GM-284]
neurite outgrowth induced by conditioned media from treated Schwann cells [1]: promoted significant neurite outgrowth; also recorded: Neurite promotion was observed only in the GM-284-treated Schwann cells' conditioned media
effect of anti-NGF / MEK1 inhibition on GM-284-mediated neurite outgrowth (DRG explants [2]): NGF- and MEK1-independent
Erk phosphorylation in DRG [3]: no activity on Erk phosphorylation; also recorded: fails to activate the ERK pathway
neurite outgrowth from DRG explants (DRG explants [4]): as active as NGF in inducing neuritogenesis; also recorded: indistinguishable from NGF-treated sister explants; also recorded: comparable outgrowth in the NGF and GM-284 treated cultures
